Source: article PMC12509308, “Stereochemistry and Charged State Influence Effector Outcomes of D‑2-Hydroxyglutarate Dehydrogenase Ligands” (Biochemistry, 2025)

B1: PaD2HGDH (Pseudomonas aeruginosa PAO1) (protein)
chain: MTREALIESLKPLVEPGKLLDDAASLDAYGKDWTKHFAPAPLAIVFPKSVEQVQAIVRWANQHKVGLVPSGGRTGLSAAAVAANGEVVVAFDYMNRILDFNAFDRTVVCQPGVVTKQLQTFAEENGLYYPVDFASSGSSQIGGNIGTNAGGIKVIRYGMTRNWVAGMKVVTGKGDLLELNKDLIKNATGYDMRQLFIGAEGTLGFVVEATMRLERTPKNLTAMVLGTPDFDSIMPVLHAFQSKLDLTAFEFFSDKALAKVLARGDVPRAFETDCPFYALLEFEATTEEVANEALATFEHCVEQGWVLDGVMSQSEQQLQNLWKLREYISETISHWTPYKNDISVTVSRVPAFLKDIDAIVEANYPDFEVVWFGHIGDGNLHLNILKPENLGKDEFFAKCATVNKWVFETVEKYNGSISAEHGVGMTKRDYLTYTRSETEIAYMKALKAVFDPNGIMNPGKIFAE
notes: full-length wild type, C-terminal 6x-His tag kept, pET20b(+), expressed in E. coli Rosetta(DE3)pLysS, Ni-NTA purified

What follows are molecules tested against T1, PaD2HGDH (Pseudomonas aeruginosa, UniProt Q9I6H4) (assay: PMS-driven oxygen consumption, initial rates, steady-state inhibition). Details: read-out: Kis.
T1 construct: gene PA0317; full-length wild type, C-terminal 6x-His tag kept, pET20b(+), expressed in E. coli Rosetta(DE3)pLysS, Ni-NTA purified
T1 sequence (Q9I6H4 1-464): B1 chain
Assay type: biochemical
From the text: PMS-driven oxygen consumption, initial rates, steady-state inhibition on PaD2HGDH

**Q.** Which Ki does the source give for `O=C(O)CC(C(=O)O)C(O)C(=O)O` (racemic) [D/L-Isocitrate] here?
**A.** The Ki was 7.8 ± 0.4 mM.

**Q.** `O=C(O)CC[C@H](O)C(=O)O` [L-2-Hydroxyglutarate] was tested. Which Ki did it give?
**A.** The Ki was 4.1 ± 0.4 mM.

**Q.** For `O=C(O)CCC(=O)C(=O)O` [2-Ketoglutarate], which Ki is on record?
**A.** Its Ki is 4.3 ± 0.3 mM.

**Q.** For `O=C(O)C(O)C(=O)O` [Tartronate], which Ki is on record?
**A.** The Ki was 18.6 ± 1.3 mM.

**Q.** For `O=C(O)C(O)c1ccc(O)cc1` (racemic) [D/L-4-Hydroxymandelate], which Ki is on record?
**A.** Its Ki is 6.5 ± 0.7 mM.

**Q.** For `O=C(O)CC(=O)C(=O)O` [Oxaloacetate], which Ki is on record?
**A.** The Ki was 2.02 ± 0.03 mM.

**Q.** Which Ki does the source give for `O=C(O)C[C@H](O)C(=O)O` [L-Malate] here?
**A.** Its Ki is 14.6 ± 1.5 mM.

**Q.** `O=C(O)C(O)c1ccc(O)c(O)c1` (racemic) [D/L-3,4-Dihydroxymandelate] was tested. Which Ki did it give?
**A.** Its Ki is 4.1 ± 0.3 mM.

**Q.** Which Ki does the source give for `O=C(O)[C@H](O)c1ccccc1` [D-Mandelate] here?
**A.** Its Ki is 18.4 ± 0.6 mM.

What follows are molecules tested on O=C(O)C[C@@H](O)C(=O)O (assay: PMS-driven oxygen consumption, initial rates, global fit of inhibition data). Details: fitted in the oxaloacetate inhibition assay (Ka extrapolated to no inhibitor), D-malate 1-60 mM, 1 mM PMS, 25 mM NaPO4 pH 7.4, 25 °C.
Assay type: biochemical, Pseudomonas aeruginosa
From the text: PMS-driven oxygen consumption, initial rates, global fit of inhibition data on PaD2HGDH

**Q.** What does the source list for B1?
**A.** Km: 8.4 ± 0.1 mM; kcat: 29.1 ± 0.1 s⁻¹
